Source: the supplement of paper PMC10307832

Assays:
Experiment in all cases: relative viability (nuclei count vs DMSO), 5 days (fraction); higher = more cells survive
[1] = tested on: CAL-12T
Method in brief: (§1)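 Lung cancer cell lines in 1536-well plates got either a single drug or a fixed anchor-drug dose together with five library-drug doses (not always all listed) in √10 steps, by pin tool, on the day after seeding. Nuclei were counted after 5 days, and relative viability is the treated-to-vehicle ratio of nuclei counts. Values are medians of duplicate plates.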

[2] = tested on: COR-L 105
Method in brief: as §1

[3] = tested on: COR-L23
Method in brief: as §1

[4] = tested on: HARA
Method in brief: as §1

[5] = tested on: HCC-15
Method in brief: as §1

[6] = tested on: HCC-366
Method in brief: as §1

[7] = tested on: HCC-827
Method in brief: as §1

[8] = tested on: HOP-62
Method in brief: as §1

[9] = tested on: LC-2-ad
Method in brief: as §1

[10] = tested on: LK-2
Method in brief: as §1

[11] = tested on: LU99A
Method in brief: as §1

[12] = tested on: LXF-289
Method in brief: as §1

[13] = tested on: NCI-H1944
Method in brief: as §1

[14] = tested on: NCI-H1975
Method in brief: as §1

[15] = tested on: NCI-H2023
Method in brief: as §1

[16] = tested on: NCI-H2085
Method in brief: as §1

[17] = tested on: NCI-H2342
Method in brief: as §1

[18] = tested on: NCI-H522
Method in brief: as §1

[19] = tested on: NCI-H647
Method in brief: as §1

[20] = tested on: NCI-H838
Method in brief: as §1

[21] = tested on: PC-14
Method in brief: as §1

[22] = tested on: SW 900
Method in brief: as §1

With C=C1C(=O)O[C@@H](CCCCCCCC)[C@@H]1C(=O)O [C-75] + Cc1nc(Nc2ncc(C(=O)Nc3c(C)cccc3Cl)s2)cc(N2CCN(CCO)CC2)n1 [Dasatinib] (partner 0.075 µM) the relative viability ([1]; first compound 0.08 µM) was 0.391, the relative viability ([1]; first compound 0.253 µM) was 0.393 and the relative viability ([1]; first compound 0.8 µM) was 0.432. For the same molecule, the relative viability ([1]; first compound 2.53 µM) was 0.317, the relative viability ([1]; first compound 8 µM) was 0.303 and the relative viability ([2]; first compound 0.08 µM) was 0.401. It also gave a relative viability ([2]; first compound 0.253 µM) of 0.243, a relative viability ([2]; first compound 0.8 µM) of 0.358 and a relative viability ([2]; first compound 2.53 µM) of 0.338. The relative viability ([2]; first compound 8 µM) was 0.303, the relative viability ([3]; first compound 0.08 µM) was 0.518 and the relative viability ([3]; first compound 0.253 µM) was 0.532. It also gave a relative viability ([3]; first compound 0.8 µM) of 0.489, a relative viability ([3]; first compound 2.53 µM) of 0.328 and a relative viability ([3]; first compound 8 µM) of 0.48. For the same molecule, the relative viability ([4]; first compound 0.08 µM) was 0.257, the relative viability ([4]; first compound 0.253 µM) was 0.241 and the relative viability ([4]; first compound 0.8 µM) was 0.239. It also gave a relative viability ([4]; first compound 2.53 µM) of 0.178, a relative viability ([4]; first compound 8 µM) of 0.298 and a relative viability ([5]; first compound 0.08 µM) of 0.644. The relative viability ([5]; first compound 0.253 µM) was 0.571, the relative viability ([5]; first compound 0.8 µM) was 0.602 and the relative viability ([5]; first compound 2.53 µM) was 0.498. For the same molecule, the relative viability ([5]; first compound 8 µM) was 0.528, the relative viability ([6]; first compound 0.08 µM) was 0.744 and the relative viability ([6]; first compound 0.253 µM) was 0.623. It also gave a relative viability ([6]; first compound 0.8 µM) of 0.605, a relative viability ([6]; first compound 8 µM) of 0.443 and a relative viability ([7]; first compound 0.08 µM) of 0.28. The relative viability ([7]; first compound 0.253 µM) was 0.356, the relative viability ([7]; first compound 0.8 µM) was 0.301 and the relative viability ([7]; first compound 2.53 µM) was 0.221. It also gave a relative viability ([7]; first compound 8 µM) of 0.347, a relative viability ([8]; first compound 0.08 µM) of 0.642 and a relative viability ([8]; first compound 0.253 µM) of 0.499. For the same molecule, the relative viability ([8]; first compound 0.8 µM) was 0.6, the relative viability ([8]; first compound 2.53 µM) was 0.603 and the relative viability ([8]; first compound 8 µM) was 0.666. It also gave a relative viability ([9]; first compound 0.08 µM) of 0.491, a relative viability ([9]; first compound 0.253 µM) of 0.521 and a relative viability ([9]; first compound 0.8 µM) of 0.468. It also gave a relative viability ([9]; first compound 2.53 µM) of 0.455, a relative viability ([9]; first compound 8 µM) of 0.4 and a relative viability ([10]; first compound 0.08 µM) of 0.388. It also gave a relative viability ([10]; first compound 0.253 µM) of 0.433, a relative viability ([10]; first compound 0.8 µM) of 0.309 and a relative viability ([10]; first compound 2.53 µM) of 0.237. It also gave a relative viability ([10]; first compound 8 µM) of 0.291, a relative viability ([11]; first compound 0.08 µM) of 0.597 and a relative viability ([11]; first compound 0.253 µM) of 0.558. The relative viability ([11]; first compound 0.8 µM) was 0.549, the relative viability ([11]; first compound 2.53 µM) was 0.495 and the relative viability ([11]; first compound 8 µM) was 0.38. The relative viability ([12]; first compound 0.08 µM) was 0.22, the relative viability ([12]; first compound 0.253 µM) was 0.137 and the relative viability ([12]; first compound 0.8 µM) was 0.26. It also gave a relative viability ([12]; first compound 2.53 µM) of 0.163, a relative viability ([12]; first compound 8 µM) of 0.22 and a relative viability ([13]; first compound 0.08 µM) of 0.234. For the same molecule, the relative viability ([13]; first compound 0.253 µM) was 0.169, the relative viability ([13]; first compound 0.8 µM) was 0.193 and the relative viability ([13]; first compound 8 µM) was 0.225. The relative viability ([14]; first compound 0.08 µM) was 0.364, the relative viability ([14]; first compound 0.253 µM) was 0.432 and the relative viability ([14]; first compound 0.8 µM) was 0.318. For the same molecule, the relative viability ([14]; first compound 2.53 µM) was 0.324, the relative viability ([14]; first compound 8 µM) was 0.404 and the relative viability ([15]; first compound 0.08 µM) was 0.639. It also gave a relative viability ([15]; first compound 0.253 µM) of 0.471, a relative viability ([15]; first compound 0.8 µM) of 0.458 and a relative viability ([15]; first compound 2.53 µM) of 0.425. For the same molecule, the relative viability ([15]; first compound 8 µM) was 0.472, the relative viability ([16]; first compound 0.08 µM) was 0.264 and the relative viability ([16]; first compound 0.253 µM) was 0.309. The relative viability ([16]; first compound 0.8 µM) was 0.284, the relative viability ([16]; first compound 2.53 µM) was 0.266 and the relative viability ([16]; first compound 8 µM) was 0.259. The relative viability ([17]; first compound 0.08 µM) was 0.3, the relative viability ([17]; first compound 0.253 µM) was 0.314 and the relative viability ([17]; first compound 0.8 µM) was 0.301. The relative viability ([17]; first compound 2.53 µM) was 0.327, the relative viability ([17]; first compound 8 µM) was 0.316 and the relative viability ([18]; first compound 0.08 µM) was 0.867. It also gave a relative viability ([18]; first compound 0.253 µM) of 0.849, a relative viability ([18]; first compound 0.8 µM) of 0.784 and a relative viability ([18]; first compound 8 µM) of 0.906. For the same molecule, the relative viability ([19]; first compound 0.08 µM) was 0.227, the relative viability ([19]; first compound 0.253 µM) was 0.114 and the relative viability ([19]; first compound 0.8 µM) was 0.172. For the same molecule, the relative viability ([19]; first compound 2.53 µM) was 0.143, the relative viability ([19]; first compound 8 µM) was 0.219 and the relative viability ([20]; first compound 0.08 µM) was 0.242. For the same molecule, the relative viability ([20]; first compound 0.253 µM) was 0.239, the relative viability ([20]; first compound 0.8 µM) was 0.274 and the relative viability ([20]; first compound 2.53 µM) was 0.26. For the same molecule, the relative viability ([20]; first compound 8 µM) was 0.268, the relative viability ([21]; first compound 0.08 µM) was 0.292 and the relative viability ([21]; first compound 0.253 µM) was 0.227. For the same molecule, the relative viability ([21]; first compound 0.8 µM) was 0.27, the relative viability ([21]; first compound 2.53 µM) was 0.272 and the relative viability ([21]; first compound 8 µM) was 0.222. It also gave a relative viability ([22]; first compound 0.08 µM) of 0.531, a relative viability ([22]; first compound 0.253 µM) of 0.796 and a relative viability ([22]; first compound 0.8 µM) of 0.829. It also gave a relative viability ([22]; first compound 2.53 µM) of 0.548 and a relative viability ([22]; first compound 8 µM) of 0.449.
